Data taken from patent EP4624465A1, “COMPOUND SERVING AS DDR1 KINASE INHIBITOR, AND MEDICINE” (Nippon Shinyaku Co., Ltd., priority 2022, dated 2024).
Counter-ions that a name gives are not always drawn.

What was measured:
DDR1 kinase [1] = target: T1, DDR1 kinase (Homo sapiens, UniProt Q08345); assay: Evaluation of DDR1 kinase inhibition in DDR1-expressing U2OS cells (type I collagen stimulation, PathHunter detection); type: cell-based; parameters: host or cells: U2OS; settings: type I collagen 50 µg/mL stimulation, duplicate, read-out: DDR-1 IC50
Target sequence in this assay (Q08345 19-913): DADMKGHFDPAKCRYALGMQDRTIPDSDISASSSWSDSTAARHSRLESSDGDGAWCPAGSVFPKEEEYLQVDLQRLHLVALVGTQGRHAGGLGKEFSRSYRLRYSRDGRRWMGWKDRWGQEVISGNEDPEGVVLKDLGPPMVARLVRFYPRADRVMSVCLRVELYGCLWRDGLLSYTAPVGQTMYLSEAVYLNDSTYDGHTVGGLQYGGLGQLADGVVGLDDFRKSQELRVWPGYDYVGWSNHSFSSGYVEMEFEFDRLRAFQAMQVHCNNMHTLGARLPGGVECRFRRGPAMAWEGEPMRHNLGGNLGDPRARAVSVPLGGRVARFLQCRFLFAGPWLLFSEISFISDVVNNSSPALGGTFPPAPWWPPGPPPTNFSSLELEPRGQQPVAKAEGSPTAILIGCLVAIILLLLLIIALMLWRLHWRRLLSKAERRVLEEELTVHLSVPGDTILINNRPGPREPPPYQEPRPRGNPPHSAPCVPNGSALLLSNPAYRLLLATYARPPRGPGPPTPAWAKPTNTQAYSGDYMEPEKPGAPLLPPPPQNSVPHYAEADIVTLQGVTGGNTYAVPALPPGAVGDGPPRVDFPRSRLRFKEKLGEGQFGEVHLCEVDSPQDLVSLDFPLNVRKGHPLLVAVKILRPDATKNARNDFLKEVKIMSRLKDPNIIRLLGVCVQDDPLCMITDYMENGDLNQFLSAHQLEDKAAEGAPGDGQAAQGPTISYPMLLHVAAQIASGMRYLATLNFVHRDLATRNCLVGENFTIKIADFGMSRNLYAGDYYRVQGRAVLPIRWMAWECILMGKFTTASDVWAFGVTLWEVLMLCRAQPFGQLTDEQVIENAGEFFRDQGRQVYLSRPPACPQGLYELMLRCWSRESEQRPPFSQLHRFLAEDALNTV

DDR1 kinase [2] = target: T1, DDR1 kinase; assay: Evaluation of DDR1 kinase inhibition (LANCE Ultra TR-FRET kinase assay); type: biochemical; parameters: purchased Carna Biosciences 08-113; settings: DDR1 protein 0.5 nM, LANCE Ultra ULight-poly GAT substrate, 2 hours at room temperature, duplicate; read-out: DDR-1 IC50
Target sequence in this assay (Q08345 19-876 isoform Q08345-2 limits assumed): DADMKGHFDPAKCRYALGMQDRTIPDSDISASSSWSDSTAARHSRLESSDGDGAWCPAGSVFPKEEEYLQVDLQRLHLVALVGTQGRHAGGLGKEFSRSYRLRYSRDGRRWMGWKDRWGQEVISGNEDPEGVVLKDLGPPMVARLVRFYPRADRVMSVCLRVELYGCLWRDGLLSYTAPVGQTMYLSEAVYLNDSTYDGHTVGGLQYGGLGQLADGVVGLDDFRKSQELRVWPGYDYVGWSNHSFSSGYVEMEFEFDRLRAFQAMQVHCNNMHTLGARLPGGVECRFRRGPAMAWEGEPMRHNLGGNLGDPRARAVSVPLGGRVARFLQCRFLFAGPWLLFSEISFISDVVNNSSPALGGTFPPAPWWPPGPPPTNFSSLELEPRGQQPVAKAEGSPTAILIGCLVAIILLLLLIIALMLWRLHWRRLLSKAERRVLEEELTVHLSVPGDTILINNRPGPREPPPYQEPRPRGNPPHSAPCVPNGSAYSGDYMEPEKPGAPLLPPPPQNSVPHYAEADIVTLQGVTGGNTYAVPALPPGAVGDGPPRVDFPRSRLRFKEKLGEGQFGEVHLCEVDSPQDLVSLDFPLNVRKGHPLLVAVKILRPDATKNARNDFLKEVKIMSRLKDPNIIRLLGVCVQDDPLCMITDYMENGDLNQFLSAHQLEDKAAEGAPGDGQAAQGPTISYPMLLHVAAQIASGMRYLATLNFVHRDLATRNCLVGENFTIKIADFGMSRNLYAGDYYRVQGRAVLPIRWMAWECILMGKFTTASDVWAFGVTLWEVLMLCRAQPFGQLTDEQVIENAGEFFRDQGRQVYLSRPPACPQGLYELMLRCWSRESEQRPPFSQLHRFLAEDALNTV

[3] = system: anti-glomerular basement membrane antibody-induced nephritis model; assay: In vivo drug efficacy in an anti-glomerular basement membrane antibody-induced nephritis model (urinary albumin); settings: twice daily for 7 days, WKY/NCrlCrlj rats, antibody untreated group = 0%, medium-treated group = 100%

Row | IC50 (DDR1 kinase [1]) | IC50 (DDR1 kinase [2]) | SMILES | Amount (%) of albumin in urine compared with medium-treated group ([3]; Dose 100 mg/kg) | Amount (%) of albumin in urine compared with medium-treated group ([3]; Dose 200 mg/kg)
1 | 53 nM | 0.4 nM | Nc1cc(C(=O)N2CC(c3nn(CC(=O)N4CCC[C@H]4C(F)(F)F)c4ccccc34)C2)c(F)cn1 [Compound E-3, 2-{3-[1-(2-amino-5-fluoropyridine-4-carbonyl)azetidin-3-yl]-1H-indazol-1-yl}-1-[(2S)-2-(trifluoromethyl)pyrrolidin-1-yl]ethan-1-one] | 67% | 
2 | 37 nM | 1.6 nM | Cl.Nc1cc(C(=O)N2CC(c3nn(CC(=O)N4CCC[C@H]4C(F)(F)F)c4cc(F)cc(F)c34)C2)ccn1 [Compound E-2, 2-{3-[1-(2-aminopyridine-4-carbonyl)azetidin-3-yl]-4,6-difluoro-1H-indazol-1-yl}-1-[(2S)-2-(trifluoromethyl)pyrrolidin-1-yl]ethan-1-one hydrochloride] |  | 73%
3 | 400 nM | 45 nM | Cc1c(C(=O)N2CC(c3nn(CC(=O)N4CCO[C@H](C(F)(F)F)C4)c4cc(F)cc(F)c34)C2)ccnc1N [Compound E-89, 2-{3-[1-(2-amino-3-methylpyridine-4-carbonyl)azetidin-3-yl]-4,6-difluoro-1H-indazol-1-yl]-1-[(2S)-2-(trifluoromethyl)morpholin-4-yllethan-1-one hydrochloride] |  | 
4 | 4200 nM | 36 nM | C[C@@H]1COCCN1C(=O)Cn1nc(C2CN(C(=O)c3ccnc(N)c3)C2)c2c(F)cc(F)cc21 [Compound E-80, 2-{3-[1-(2-aminopyridine-4-carbonyl)azetidin-3-yl]-4,6-difluoro-1H-indazol-1-yl}-1-[(3R)-3-methylmorpholin-4-yl]ethan-1-one hydrochloride] |  | 
5 | 420 nM | 41 nM | N#CC1(NC(=O)Cn2nc(C3CN(C(=O)c4cc(N)ncc4F)C3)c3ccccc32)CC1 [Compound E-244, 2-{3-{1-(2-amino-5-fluoropyridine-4-carbonyl)azetidin-3-yl]-1H-indazol-1-yl}-N-(1-cyanocyclopropyl)acetamide] |  | 
6 | 65 nM | 15 nM | CCN(CC)C(=O)Cn1nc(C2CN(C(=O)c3cc(N)ncc3F)C2)c2ccccc21 [Compound E-263, 2-{3-[1-(2-amino-5-fluoropyridine-4-carbonyl)azetidin-3-yl]-1H-indazol-1-yl}-N,N-diethylacetamide] |  | 
7 | 34 nM | 3.8 nM | Nc1cc(C(=O)N2CC(c3nn(CC(=O)N4CC(F)(F)C[C@H]4CF)c4ccccc34)C2)c(F)cn1 [Compound E-237, 2-{3-[1-(2-amino-5-fluoropyridine-4-carbonyl)azetidin-3-yl]-1H-indazol-1-yl]-1-[(2S)-4,4-difluoro-2-(fluoromethyl)pyrrolidin-1-yl]ethan-1-one] |  | 
